Source: patent US20250171495A1, “MUTLI-TARGETED SERINE PROTEASE INHIBITORS FOR TREATMENT OF CANCER AND VIRAL INFECTION” (Washington University, priority 2023, published 2025)

Legend:
Assay type in all cases: biochemical
TMPRSS2 = TMPRSS2 (Homo sapiens, UniProt O15393); test: PS-SCL / HyCoSuL substrate specificity screening, TMPRSS2; conditions: for P2 Position Substrate Activity for TMPRSS2 (percent substrate cleavage/proteolysis): residue fixed at P2 position of substrate library; for P2 Position Substrate Activity for TMPRSS2 (percent substrate cleavage/proteolysis) / P3 Position Substrate Activity for TMPRSS2 (percent substrate cleavage/proteolysis): best recognized amino acid set to 100%; for P3 Position Various Amino Acids Substrate Activity, TMPRSS2 (percent substrate cleavage/proteolysis) / P3 Position Substrate Activity for TMPRSS2 (percent substrate cleavage/proteolysis): residue fixed at P3 position of substrate library; for P4 Position Various Amino Acids Substrate Activity, TMPRSS2 (percent substrate proteolysis/cleavage): residue fixed at P4 position of substrate library
Chain of TMPRSS2 (O15393 whole entry): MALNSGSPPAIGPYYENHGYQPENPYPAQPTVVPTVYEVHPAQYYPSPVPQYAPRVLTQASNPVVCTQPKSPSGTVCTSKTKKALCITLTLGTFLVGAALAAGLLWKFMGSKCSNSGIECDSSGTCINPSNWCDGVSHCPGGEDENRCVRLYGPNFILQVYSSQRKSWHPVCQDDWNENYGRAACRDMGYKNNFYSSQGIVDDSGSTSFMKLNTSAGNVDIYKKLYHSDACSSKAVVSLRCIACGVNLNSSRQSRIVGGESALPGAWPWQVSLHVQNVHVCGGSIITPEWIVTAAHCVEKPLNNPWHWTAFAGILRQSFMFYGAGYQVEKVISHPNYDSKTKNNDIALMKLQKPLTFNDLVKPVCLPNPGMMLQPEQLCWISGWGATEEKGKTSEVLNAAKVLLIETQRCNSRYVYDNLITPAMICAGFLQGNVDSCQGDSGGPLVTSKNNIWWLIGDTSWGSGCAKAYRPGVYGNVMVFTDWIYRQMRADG

matriptase = target: T1, matriptase (Homo sapiens, UniProt Q9Y5Y6); test: HyCoSuL P4-P2 substrate specificity screening, matriptase; conditions: for P2 Position Substrate Activity for matriptase (percent substrate cleavage/proteolysis): residue fixed at P2 position; for P2 Position Substrate Activity for matriptase (percent substrate cleavage/proteolysis) / P3 Position Substrate Activity for matriptase (percent substrate cleavage/proteolysis): P1-Arg HyCoSuL, 100 μM, best recognized amino acid set to 100%; for P3 Position Various Amino Acids Substrate Activity, matriptase (percent substrate cleavage/proteolysis): residue fixed at P3 position of substrate library; for P4 Position Various Amino Acids Substrate Activity, matriptase (percent substrate proteolysis/cleavage): residue fixed at P4 position of substrate library; for P3 Position Substrate Activity for matriptase (percent substrate cleavage/proteolysis): residue fixed at P3 position
T1 sequence (Q9Y5Y6 1-855): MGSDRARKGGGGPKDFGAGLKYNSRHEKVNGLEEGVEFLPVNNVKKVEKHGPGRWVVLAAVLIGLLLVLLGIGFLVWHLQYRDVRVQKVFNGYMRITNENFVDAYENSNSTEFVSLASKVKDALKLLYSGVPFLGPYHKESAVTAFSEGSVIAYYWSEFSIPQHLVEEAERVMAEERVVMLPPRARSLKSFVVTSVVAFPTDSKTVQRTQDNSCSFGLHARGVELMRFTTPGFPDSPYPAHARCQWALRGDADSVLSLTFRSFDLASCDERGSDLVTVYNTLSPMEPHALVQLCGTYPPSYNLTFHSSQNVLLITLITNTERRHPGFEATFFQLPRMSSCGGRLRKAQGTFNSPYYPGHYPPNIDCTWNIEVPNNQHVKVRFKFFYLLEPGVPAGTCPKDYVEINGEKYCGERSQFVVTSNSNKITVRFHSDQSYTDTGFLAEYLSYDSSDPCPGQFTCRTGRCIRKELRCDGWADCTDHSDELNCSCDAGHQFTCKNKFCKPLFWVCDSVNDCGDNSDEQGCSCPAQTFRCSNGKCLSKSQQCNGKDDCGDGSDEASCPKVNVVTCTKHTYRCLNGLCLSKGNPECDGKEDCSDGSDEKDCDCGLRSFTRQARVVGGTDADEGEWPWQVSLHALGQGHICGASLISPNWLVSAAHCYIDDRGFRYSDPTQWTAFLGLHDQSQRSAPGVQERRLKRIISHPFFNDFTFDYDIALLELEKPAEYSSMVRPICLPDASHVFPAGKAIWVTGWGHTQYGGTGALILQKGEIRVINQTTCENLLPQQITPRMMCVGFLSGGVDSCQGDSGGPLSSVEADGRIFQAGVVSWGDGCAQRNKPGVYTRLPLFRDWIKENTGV

hepsin = target: T2, hepsin (Homo sapiens, UniProt P05981); test: HyCoSuL P4-P2 substrate specificity screening, hepsin; conditions: for P2 Position Substrate Activity for hepsin (percent substrate cleavage/proteolysis): residue fixed at P2 position; for P2 Position Substrate Activity for hepsin (percent substrate cleavage/proteolysis) / P3 Position Substrate Activity for hepsin (percent substrate cleavage/proteolysis): P1-Arg HyCoSuL, 100 μM, best recognized amino acid set to 100%; for P3 Position Various Amino Acids Substrate Activity, hepsin (percent substrate cleavage/proteolysis): residue fixed at P3 position of substrate library; for P4 Position Various Amino Acids Substrate Activity, hepsin (percent substrate proteolysis/cleavage): residue fixed at P4 position of substrate library; for P3 Position Substrate Activity for hepsin (percent substrate cleavage/proteolysis): residue fixed at P3 position
T2 construct: purchased R&D Systems 4776-SE-010
T2 sequence (P05981 163-417 limits assumed): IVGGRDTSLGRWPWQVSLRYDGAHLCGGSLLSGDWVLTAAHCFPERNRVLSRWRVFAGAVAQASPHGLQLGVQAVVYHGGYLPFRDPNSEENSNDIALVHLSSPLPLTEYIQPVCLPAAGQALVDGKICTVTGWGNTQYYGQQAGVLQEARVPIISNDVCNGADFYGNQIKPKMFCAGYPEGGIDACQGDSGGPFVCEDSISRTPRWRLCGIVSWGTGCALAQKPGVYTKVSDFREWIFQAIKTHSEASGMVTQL
T2 sequence (P05981 1-162 partner limits assumed): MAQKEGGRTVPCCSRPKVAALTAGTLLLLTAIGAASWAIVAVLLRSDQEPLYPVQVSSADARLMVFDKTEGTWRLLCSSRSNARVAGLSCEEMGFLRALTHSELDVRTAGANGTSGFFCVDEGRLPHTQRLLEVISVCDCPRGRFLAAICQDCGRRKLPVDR

HGFA = target: T3, HGFA (Homo sapiens, UniProt Q04756); test: HyCoSuL P4-P2 substrate specificity screening, HGFA; conditions: for P2 Position Substrate Activity for HGFA (percent substrate cleavage/proteolysis): residue fixed at P2 position; for P2 Position Substrate Activity for HGFA (percent substrate cleavage/proteolysis) / P3 Position Substrate Activity for HGFA (percent substrate cleavage/proteolysis): P1-Arg HyCoSuL, 100 μM, best recognized amino acid set to 100%; for P3 Position Various Amino Acids Substrate Activity, HGFA (percent substrate cleavage/proteolysis): residue fixed at P3 position of substrate library; for P4 Position Various Amino Acids Substrate Activity, HGFA (percent substrate proteolysis/cleavage): residue fixed at P4 position of substrate library; for P3 Position Substrate Activity for HGFA (percent substrate cleavage/proteolysis): residue fixed at P3 position
T3 sequence (Q04756 373-655): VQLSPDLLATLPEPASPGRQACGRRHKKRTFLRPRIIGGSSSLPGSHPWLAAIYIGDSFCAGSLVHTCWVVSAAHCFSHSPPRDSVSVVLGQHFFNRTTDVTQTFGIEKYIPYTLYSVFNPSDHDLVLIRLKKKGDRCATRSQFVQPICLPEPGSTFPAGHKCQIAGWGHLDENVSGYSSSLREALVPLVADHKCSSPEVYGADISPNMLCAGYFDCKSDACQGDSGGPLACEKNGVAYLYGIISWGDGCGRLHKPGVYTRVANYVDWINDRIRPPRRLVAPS

P2 Position Substrate Activity for TMPRSS2 (percent substrate cleavage/proteolysis) (TMPRSS2)	P3 Position Various Amino Acids Substrate Activity, TMPRSS2 (percent substrate cleavage/proteolysis) (TMPRSS2)	P4 Position Various Amino Acids Substrate Activity, TMPRSS2 (percent substrate proteolysis/cleavage) (TMPRSS2)	P2 Position Substrate Activity for matriptase (percent substrate cleavage/proteolysis) (matriptase)	P3 Position Various Amino Acids Substrate Activity, matriptase (percent substrate cleavage/proteolysis) (matriptase)	P4 Position Various Amino Acids Substrate Activity, matriptase (percent substrate proteolysis/cleavage) (matriptase)	P2 Position Substrate Activity for hepsin (percent substrate cleavage/proteolysis) (hepsin)	P3 Position Various Amino Acids Substrate Activity, hepsin (percent substrate cleavage/proteolysis) (hepsin)	P4 Position Various Amino Acids Substrate Activity, hepsin (percent substrate proteolysis/cleavage) (hepsin)	P2 Position Substrate Activity for HGFA (percent substrate cleavage/proteolysis) (HGFA)	P3 Position Various Amino Acids Substrate Activity, HGFA (percent substrate cleavage/proteolysis) (HGFA)	P4 Position Various Amino Acids Substrate Activity, HGFA (percent substrate proteolysis/cleavage) (HGFA)	P3 Position Substrate Activity for TMPRSS2 (percent substrate cleavage/proteolysis) (TMPRSS2)	P3 Position Substrate Activity for matriptase (percent substrate cleavage/proteolysis) (matriptase)	P3 Position Substrate Activity for hepsin (percent substrate cleavage/proteolysis) (hepsin)	P3 Position Substrate Activity for HGFA (percent substrate cleavage/proteolysis) (HGFA)	Substance
0.00%	0.00%	19.65%	0%	2%	7%	0.00%	38.75%	18.48%	0.00%	15.16%	7.38%	–	–	–	–	D-Asn
0.00%	20.28%	18.22%	0%	0%	1%	0.00%	17.18%	1.98%	0.00%	5.37%	2.25%	–	–	–	–	D-Asp
0.00%	–	20.76%	0%	7%	7%	0.00%	–	20.13%	0.00%	–	8.03%	10.18%	7.43%	97.80%	13.84%	D-Gln
0.00%	12.50%	23.68%	0%	2%	1%	0.00%	34.55%	2.98%	0.00%	3.61%	2.62%	–	–	–	–	D-Glu
0.00%	6.35%	24.51%	0%	3%	7%	0.00%	40.09%	19.33%	0.00%	11.09%	7.79%	–	–	–	–	D-His
0.00%	0.00%	28.04%	0%	4%	9%	0.00%	20.14%	24.76%	0.00%	7.08%	10.56%	–	–	–	–	D-Leu
0.00%	–	16.31%	0%	15%	14%	0.00%	–	49.84%	0.00%	–	17.66%	0.00%	14.70%	64.56%	21.11%	D-Lys
0.00%	3.80%	24.14%	0%	5%	6%	0.00%	24.92%	13.15%	0.00%	15.22%	8.13%	–	–	–	–	D-Phe
0.00%	0.00%	19.76%	0%	0%	9%	0.00%	38.88%	20.45%	0.00%	4.96%	10.30%	–	–	–	–	D-Pro
